Data reported in ChEMBL document CHEMBL5338769, “Discovery of Norisoboldine Analogue III11 as a Novel and Potent Aryl Hydrocarbon Receptor Agonist for the Treatment of Ulcerative Colitis” (J Med Chem, 2023).
Activity calls are given as the source filed them. The rule behind the calls is not given here.

Experiments:
[1] = system: Mus musculus; assay: Anti-colitis activity against DSS-induced ulcerative colitis C57BL/6 mouse model assessed as amelioration of epithelial change score by measuring cryptitis in colon at 10 to 20 mg/kg, po administered once a day for 10 days by H&E staining based histopathological analysis; assay type: functional, organism-based; settings: dose 10-20 mg/kg, time 10.0 day
[2] = system: Mus musculus; assay: Anti-colitis activity against DSS-induced ulcerative colitis C57BL/6 mouse model assessed as amelioration of epithelial change score by measuring hyperplasia in colon at 10 to 20 mg/kg, po administered once a day for 10 days by H&E staining based histopathological analysis; assay type: functional, organism-based; settings: dose 10-20 mg/kg, time 10.0 day
[3] = Protein binding in rat plasma at 10.74 ug/ml of total concentration measured after 12 hrs by ultrafiltration based HPLC analysis; assay type: ADME, cell-free; settings: at 10.74 µg/mL, read-out: PPB (converted)
[4] = MRT in Sprague-Dawley rat at 30 mg/kg, po measured upto 1440 min by LC-MS/MS analysis; assay type: ADME, organism-based; settings: in vivo
[5] = target: T1, Aryl hydrocarbon receptor (Mus musculus, UniProt P30561); assay: Binding affinity to AhR in mouse EL4 cells assessed as thermal stabilization at 3 uM at 37 to 67 degreeC incubated for 24 hrs thermal shift assay based Western blot analysis; assay type: cell-based; settings: el4, 24 h
T1 sequence (P30561 whole entry): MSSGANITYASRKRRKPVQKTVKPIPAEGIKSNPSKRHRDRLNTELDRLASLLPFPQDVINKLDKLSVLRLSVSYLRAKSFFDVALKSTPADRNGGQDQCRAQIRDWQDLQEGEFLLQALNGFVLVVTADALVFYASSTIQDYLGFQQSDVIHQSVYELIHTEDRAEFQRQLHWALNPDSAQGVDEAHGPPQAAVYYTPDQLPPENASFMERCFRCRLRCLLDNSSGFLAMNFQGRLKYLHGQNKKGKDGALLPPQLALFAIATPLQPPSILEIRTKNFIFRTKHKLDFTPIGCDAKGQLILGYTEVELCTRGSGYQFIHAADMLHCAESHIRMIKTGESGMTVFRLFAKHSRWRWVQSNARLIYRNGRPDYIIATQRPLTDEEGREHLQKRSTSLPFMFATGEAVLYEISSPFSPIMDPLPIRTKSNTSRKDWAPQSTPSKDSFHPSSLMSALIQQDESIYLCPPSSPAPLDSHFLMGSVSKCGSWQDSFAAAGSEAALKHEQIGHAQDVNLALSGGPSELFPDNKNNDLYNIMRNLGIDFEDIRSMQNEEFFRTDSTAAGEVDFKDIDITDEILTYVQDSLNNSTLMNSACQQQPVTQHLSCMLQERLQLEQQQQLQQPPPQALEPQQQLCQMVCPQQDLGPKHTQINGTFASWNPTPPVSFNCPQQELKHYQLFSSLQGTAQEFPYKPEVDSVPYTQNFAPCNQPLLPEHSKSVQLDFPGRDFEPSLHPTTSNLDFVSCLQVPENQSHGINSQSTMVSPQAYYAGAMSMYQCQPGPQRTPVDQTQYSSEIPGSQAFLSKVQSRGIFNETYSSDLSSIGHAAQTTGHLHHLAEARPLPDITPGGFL

[6] = AUC(0 to infinity) in Sprague-Dawley rat at 3 mg/kg, iv measured upto 1440 min by LC-MS/MS analysis; assay type: ADME, organism-based; design: dose 3 mg/kg, time < 1440 min, route iv; settings: in vivo
[7] = system: Mus musculus; assay: Anti-colitis activity against DSS-induced ulcerative colitis C57BL/6 mouse model assessed as amelioration of inflammation severity in colon at 10 to 20 mg/kg, po administered once a day for 10 days by H&E staining based histopathological analysis; assay type: functional, organism-based; settings: dose 10-20 mg/kg, time 10.0 day
[8] = Protein binding in rat plasma at 20.13 ug/ml of total concentration measured after 12 hrs by ultrafiltration based HPLC analysis; assay type: ADME, cell-free; settings: at 20.13 µg/mL, read-out: PPB
[9] = system: Mus musculus; assay: Anti-colitis activity against DSS-induced ulcerative colitis C57BL/6 mouse model assessed as amelioration of epithelial change score by measuring erosion in colon at 10 to 20 mg/kg, po administered once a day for 10 days by H&E staining based histopathological analysis; assay type: functional, organism-based; settings: dose 10-20 mg/kg, time 10.0 day
[10] = Induction of cell differentiation in C57BL/6 mouse naive regulatory T cells assessed as increase in cell frequency at 3 uM incubated for 72 hrs by flow cytometric analysis (reference value: 24.9%); assay type: functional
[11] = Induction of cell differentiation in C57BL/6 mouse naive regulatory T cells assessed as increase in cell frequency at 1 uM incubated for 72 hrs by flow cytometric analysis (reference value: 24.9%); assay type: functional
[12] = Induction of cell differentiation in C57BL/6 mouse naive regulatory T cells assessed as increase in cell frequency at 10 uM incubated for 72 hrs by flow cytometric analysis (reference value: 24.9%); assay type: functional
[13] = system: Mus musculus; assay: Anti-colitis activity against DSS-induced ulcerative colitis C57BL/6 mouse model assessed as amelioration of mucosal architecture score by measuring granulation in colon at 10 to 20 mg/kg, po administered once a day for 10 days by H&E staining based histopathological analysis; assay type: functional, organism-based; settings: dose 10-20 mg/kg, time 10.0 day
[14] = system: Mus musculus; assay: Anti-colitis activity in DSS-induced ulcerative colitis C57BL/6 mouse model assessed as CD4+CD25+Foxp3+ Treg cell percentage in spleen at 20 mg/kg, po administered once a day for 10 days by flow cytometric analysis (reference value: 3.3%); assay type: functional; settings: time 10 day
[15] = Protein binding in rat plasma at 37.38 ug/ml of total concentration measured after 12 hrs by ultrafiltration based HPLC analysis; assay type: ADME, cell-free; settings: at 37.38 µg/mL, read-out: PPB (converted)
[16] = system: Mus musculus; assay: Anti-colitis activity against DSS-induced ulcerative colitis C57BL/6 mouse model assessed as increase in IL-10 mRNA level by measuring fold change at 10 mg/kg, po administered once a day for 10 days by qRT-PCR analysis; assay type: functional; settings: time 10 day
[17] = Protein binding in rat plasma at 48.02 ug/ml of total concentration measured after 12 hrs by ultrafiltration based HPLC analysis; assay type: ADME, cell-free; settings: at 48.02 µg/mL, read-out: PPB (converted)
[18] = system: Mus musculus; assay: Anti-colitis activity against DSS-induced ulcerative colitis C57BL/6 mouse model assessed as increase in Foxp3 mRNA level at 20 mg/kg, po administered once a day for 10 days by qRT-PCR analysis; assay type: functional, organism-based; settings: time 10.0 day
[19] = Protein binding in rat plasma at 21.67 ug/ml of total concentration measured after 12 hrs by ultrafiltration based HPLC analysis; assay type: ADME, cell-free; settings: at 21.67 µg/mL, read-out: PPB (converted)
[20] = Half-life in Sprague-Dawley rat at 30 mg/kg, po measured upto 1440 min by LC-MS/MS analysis; assay type: ADME, organism-based; settings: in vivo
[21] = target: T1, Aryl hydrocarbon receptor; assay: Activation of AhR transcription in C57BL/6 mouse naive T cells assessed as increase in AhRR mRNA expression at 1 to 3 uM by qRT-PCR analysis; assay type: cell-based; settings: t cell, dose 1-3 µM
[22] = system: Mus musculus; assay: Anti-colitis activity against DSS-induced ulcerative colitis C57BL/6 mouse model assessed as recovery of colon length at 20 mg/kg, po administered once a day for 10 days; assay type: functional, organism-based; settings: time 10.0 day
[23] = Apparent oral clearance in Sprague-Dawley rat at 3 mg/kg, iv measured upto 1440 min by LC-MS/MS analysis; assay type: ADME, organism-based; settings: in vivo, 24 h

COc1cc2c3c(c1)-c1ccc(O)cc1CC3NCC2 (stereo not drawn)
Activity [1]: Active | Activity [2]: Active | fraction unbound at 12 h, 10.74 ug/ml [3]: 0.134 | MRT [4]: 7.27 h | Activity [5]: Active | AUC(0-inf) [6]: 974 ng·h/mL | Activity [7]: Active | fraction unbound at 12 h, 20.13 ug/ml [8]: 0.498 | Activity [9]: Active | Activity [10]: 35.4% | Activity [11]: 29.9% | Activity [12]: 41.7% | Activity [13]: Active | Activity [14]: 4% | fraction unbound at 12 h, 37.38 ug/ml [15]: 0.491 | fold change (FC) [16]: 1.26 | fraction unbound at 12 h, 48.02 ug/ml [17]: 0.139 | Activity [18]: Active | fraction unbound at 12 h, 21.67 ug/ml [19]: 0.149 | half-life [20]: 2.69 h | Activity [21]: Active | Activity [22]: Active | CL/F [23]: 0.01 mg/(ng/ml)/min
